# Data: publication PMC11227529, “An in-situ peptide-antibody self-assembly to block CD47 and CD24 signaling enhances macrophage-mediated phagocytosis and anti-tumor immune responses” (Nature Communications, 2024)
# Like-named read-outs stand apart in the source and are kept apart here.
# Assays:
# PAN02 subcutaneous tumor = assay type: in vivo, mouse
# From the text: (§1) After the intravenous administration of free Cy5.5, ^Cy5.5SAMIs, and ^Cy5.5PAC-SABIs, the mice were euthanized at the 48-h mark, and the heart, liver, spleen, lung, kidney, and tumor were harvested for ex vivo imaging (Fig. 5e, f). […] Despite the observed retention in metabolic organs such as the liver and kidney, distinct variations in tissue distribution were noted between ^Cy5.5SAMIs and ^Cy5.5PAC-SABIs (Fig. 5e, f and Supplementary Fig. 30). Specifically, ^Cy5.5PAC-SABIs achieved a marked selective enrichment in both BC and PC tumors. […] The discernible dissimilarity between these two molecules could be attributed to the presence of targeted ligands and EISA, which augmented the precise recognition of ^Cy5.5PAC-SABIs toward cancer cells and facilitated their proficient molecular assembly. To further observe the distribution of ^Cy5.5PAC-SABIs in the BC and PC tissues, we analyzed the Cy5.5 fluorescence of tumor sections. […] Moreover, we employed SEM imaging to visualize the in situ self-assembly morphology of PAC-SABIs.
# (§2) To obtain breast and pancreatic subcutaneous xenografts, 1 × 10^6 4T1 or PAN02 cells were implanted into the right hind limb of BALB/c and C57BL/6 mice, respectively. When the tumor size reached ≈ 50 mm^3, mice were randomly sorted into free Cy5.5, ^Cy5.5SAMIs, and ^Cy5.5PAC-SABIs groups. The 4T1 and PAN02 tumor-bearing mice were correspondingly intravenously injected with free Cy5.5, ^Cy5.5SAMIs, and ^Cy5.5PAC-SABIs (the dose of Cy5.5 was 1 mg/kg) for in vivo fluorescence imaging with IVIS system (Perkin Elmer, USA). Then, the mice were sacrificed to collect the major organs (heart, liver, spleen, lung, and kidney) and tumors for ex vivo fluorescence imaging. Finally, the 4T1 and PAN02 tumors were embedded in Tissue-Tek OCT compound (Sakura, Japan), and cryosections of 8 µm thickness were prepared. The Cy5.5 signal was detected using a fluorescence microscope (Nikon, Japan).
# (§3) Supplementary Fig. 30 Quantification analysis of the ex vivo NIR fluorescence intensity in tumors and major organs. a Quantitative calculation of average fluorescence signal in 4T1 tumor and major organ area. The error bars represent the mean ± SD (n = 3 mice; ****p < 0.0001; the p value was analyzed by a two-tailed unpaired Student’s t-test).b Quantitative calculation of average fluorescence signal in PAN02 tumor and major organ area. The error bars represent the mean ± SD (n = 3 mice; ****p < 0.0001; the p value was analyzed by a two-tailed unpaired Student’s t-test).Source data are provided as a Source Data file.
# (§4) (1 picture or pasted object on this page, not shown here)
# 4T1 subcutaneous tumor = assay: Ex vivo NIR fluorescence of tumor and major organs, 48 h; assay type: in vivo, mouse
# From the text: as §1, §2, §3, §4
substance,measurement,setting,value
cyanine 5.5 [free Cy5.5],Average radiant efficiency,"PAN02 subcutaneous tumor; Heart, PAN02 model, replicate 1",0.069 × 10^3 P/Sec
same,Average radiant efficiency,"PAN02 subcutaneous tumor; Heart, PAN02 model, replicate 2",0.108 × 10^3 P/Sec
same,Average radiant efficiency,"PAN02 subcutaneous tumor; Heart, PAN02 model, replicate 3",0.122 × 10^3 P/Sec
same,Average radiant efficiency,"PAN02 subcutaneous tumor; Kidney, PAN02 model, replicate 1",0.064 × 10^3 P/Sec
same,Average radiant efficiency,"PAN02 subcutaneous tumor; Kidney, PAN02 model, replicate 2",0.137 × 10^3 P/Sec
same,Average radiant efficiency,"PAN02 subcutaneous tumor; Kidney, PAN02 model, replicate 3",0.152 × 10^3 P/Sec
same,Average radiant efficiency,"PAN02 subcutaneous tumor; Liver, PAN02 model, replicate 1",0.094 × 10^3 P/Sec
same,Average radiant efficiency,"PAN02 subcutaneous tumor; Liver, PAN02 model, replicate 2",0.126 × 10^3 P/Sec
same,Average radiant efficiency,"PAN02 subcutaneous tumor; Liver, PAN02 model, replicate 3",0.145 × 10^3 P/Sec
same,Average radiant efficiency,"PAN02 subcutaneous tumor; Lung, PAN02 model, replicate 1",0.056 × 10^3 P/Sec
same,Average radiant efficiency,"PAN02 subcutaneous tumor; Lung, PAN02 model, replicate 2",0.103 × 10^3 P/Sec
same,Average radiant efficiency,"PAN02 subcutaneous tumor; Lung, PAN02 model, replicate 3",0.159 × 10^3 P/Sec
same,Average radiant efficiency,"PAN02 subcutaneous tumor; PAN02 tumor, replicate 1",0.125 × 10^3 P/Sec
same,Average radiant efficiency,"PAN02 subcutaneous tumor; PAN02 tumor, replicate 2",0.056 × 10^3 P/Sec
same,Average radiant efficiency,"PAN02 subcutaneous tumor; PAN02 tumor, replicate 3",0.141 × 10^3 P/Sec
same,Average radiant efficiency,"PAN02 subcutaneous tumor; Spleen, PAN02 model, replicate 1",0.046 × 10^3 P/Sec
same,Average radiant efficiency,"PAN02 subcutaneous tumor; Spleen, PAN02 model, replicate 2",0.093 × 10^3 P/Sec
same,Average radiant efficiency,"PAN02 subcutaneous tumor; Spleen, PAN02 model, replicate 3",0.157 × 10^3 P/Sec
same,ex vivo NIR fluorescence accumulation,"4T1 subcutaneous tumor; 4T1 and PAN02 tumor-bearing mice, 48 h after i.v. injection, tumors and major organs",negligible accumulation in the tumors and major organs
same,Average radiant efficiency,"4T1 subcutaneous tumor; 4T1 tumor, replicate 1",0.156 × 10^3 P/Sec
same,Average radiant efficiency,"4T1 subcutaneous tumor; 4T1 tumor, replicate 2",0.054 × 10^3 P/Sec
same,Average radiant efficiency,"4T1 subcutaneous tumor; 4T1 tumor, replicate 3",0.174 × 10^3 P/Sec
same,Average radiant efficiency,"4T1 subcutaneous tumor; Heart, 4T1 model, replicate 1",0.085 × 10^3 P/Sec
same,Average radiant efficiency,"4T1 subcutaneous tumor; Heart, 4T1 model, replicate 2",0.174 × 10^3 P/Sec
same,Average radiant efficiency,"4T1 subcutaneous tumor; Heart, 4T1 model, replicate 3",0.168 × 10^3 P/Sec
same,Average radiant efficiency,"4T1 subcutaneous tumor; Kidney, 4T1 model, replicate 1",0.115 × 10^3 P/Sec
same,Average radiant efficiency,"4T1 subcutaneous tumor; Kidney, 4T1 model, replicate 2",0.12 × 10^3 P/Sec
same,Average radiant efficiency,"4T1 subcutaneous tumor; Kidney, 4T1 model, replicate 3",0.073 × 10^3 P/Sec
same,Average radiant efficiency,"4T1 subcutaneous tumor; Liver, 4T1 model, replicate 1",0.118 × 10^3 P/Sec
same,Average radiant efficiency,"4T1 subcutaneous tumor; Liver, 4T1 model, replicate 2",0.061 × 10^3 P/Sec
same,Average radiant efficiency,"4T1 subcutaneous tumor; Liver, 4T1 model, replicate 3",0.22 × 10^3 P/Sec
same,Average radiant efficiency,"4T1 subcutaneous tumor; Lung, 4T1 model, replicate 1",0.137 × 10^3 P/Sec
same,Average radiant efficiency,"4T1 subcutaneous tumor; Lung, 4T1 model, replicate 2",0.09 × 10^3 P/Sec
same,Average radiant efficiency,"4T1 subcutaneous tumor; Lung, 4T1 model, replicate 3",0.095 × 10^3 P/Sec
same,Average radiant efficiency,"4T1 subcutaneous tumor; Spleen, 4T1 model, replicate 1",0.157 × 10^3 P/Sec
same,Average radiant efficiency,"4T1 subcutaneous tumor; Spleen, 4T1 model, replicate 2",0.112 × 10^3 P/Sec
same,Average radiant efficiency,"4T1 subcutaneous tumor; Spleen, 4T1 model, replicate 3",0.069 × 10^3 P/Sec
